In PubChem BioAssay (NCI):
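In this assay, cells in 96-well plates receive the compound at five concentrations for 48 hours. Endpoints are linearly interpolated between the surrounding concentrations. TGI: total growth inhibition.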

Legend:
Assay in all cases: NCI-60 cell line screen, 48 h
[1] = tested on: 786-0 renal
[2] = tested on: A549 NSCLC
[3] = tested on: ACHN renal
[4] = tested on: BT-549 breast
[5] = tested on: CAKI-1 renal
[6] = tested on: CCRF-CEM leukemia
[7] = tested on: COLO 205 colon
[8] = tested on: DU-145 prostate
[9] = tested on: EKVX NSCLC
[10] = tested on: HCC-2998 colon
[11] = tested on: HCT-116 colon
[12] = tested on: HCT-15 colon
[13] = tested on: HL-60(TB) leukemia
[14] = tested on: HOP-62 NSCLC
[15] = tested on: HS 578T breast
[16] = tested on: HT29 colon
[17] = tested on: IGROV1 ovarian
[18] = tested on: K-562 leukemia
[19] = tested on: KM12 colon
[20] = tested on: LOX IMVI melanoma
[21] = tested on: M14 melanoma
[22] = tested on: MALME-3M melanoma
[23] = tested on: MCF7 breast
[24] = tested on: MDA-MB-231 breast
[25] = tested on: MDA-MB-435
[26] = tested on: MDA-N
[27] = tested on: MOLT-4 leukemia
[28] = tested on: NCI-H226 lung
[29] = tested on: NCI-H23 lung
[30] = tested on: NCI-H460 lung
[31] = tested on: NCI-H522 lung
[32] = tested on: NCI/ADR-RES ovarian
[33] = tested on: OVCAR-3 ovarian
[34] = tested on: OVCAR-4 ovarian
[35] = tested on: OVCAR-5 ovarian
[36] = tested on: OVCAR-8 ovarian
[37] = tested on: PC-3 prostate
[38] = tested on: RPMI-8226 leukemia
[39] = tested on: RXF 393 renal
[40] = tested on: SF-268 CNS
[41] = tested on: SF-295 CNS
[42] = tested on: SF-539 CNS
[43] = tested on: SK-MEL-2 melanoma
[44] = tested on: SK-MEL-28 melanoma
[45] = tested on: SK-MEL-5 melanoma
[46] = tested on: SK-OV-3 ovarian
[47] = tested on: SN12C renal
[48] = tested on: SNB-19 CNS
[49] = tested on: SNB-75 CNS
[50] = tested on: SR leukemia
[51] = tested on: SW-620 colon
[52] = tested on: T-47D breast
[53] = tested on: TK-10 renal
[54] = tested on: U251 CNS
[55] = tested on: UACC-257 melanoma
[56] = tested on: UACC-62 melanoma
[57] = tested on: UO-31 renal
[58] = tested on: HOP-92 NSCLC

In the case of `CC(C)CC(C(N)=O)C(=O)NC(Cc1ccccc1)NC(=O)CNC(=O)C(C)NC(=O)C(N)Cc1ccc(O)cc1` (configuration not stated), the TGI [1] is reported as greater than 100 µM, the TGI [2] is reported as greater than 100 µM and the TGI [3] is reported as greater than 100 µM. The TGI [4] was greater than 100 µM, the TGI [5] was greater than 100 µM and the TGI [6] was greater than 100 µM. For the same molecule, the TGI [7] was greater than 100 µM, the TGI [8] was greater than 100 µM and the TGI [9] was greater than 100 µM. It also gave a TGI [10] greater than 100 µM, a TGI [11] greater than 100 µM and a TGI [12] greater than 100 µM. The TGI [13] was greater than 100 µM, the TGI [14] was greater than 100 µM and the TGI [15] was greater than 100 µM. It also gave a TGI [16] greater than 100 µM, a TGI [17] greater than 100 µM and a TGI [18] greater than 100 µM. For the same molecule, the TGI [19] was greater than 100 µM, the TGI [20] was greater than 100 µM and the TGI [21] was greater than 100 µM. It also gave a TGI [22] greater than 100 µM, a TGI [23] greater than 100 µM and a TGI [24] greater than 100 µM. The TGI [25] was greater than 100 µM, the TGI [26] was greater than 100 µM and the TGI [27] was greater than 100 µM. For the same molecule, the TGI [28] was greater than 100 µM, the TGI [29] was greater than 100 µM and the TGI [30] was greater than 100 µM. For the same molecule, the TGI [31] was greater than 100 µM, the TGI [32] was greater than 100 µM and the TGI [33] was greater than 100 µM. It also gave a TGI [34] greater than 100 µM, a TGI [35] greater than 100 µM and a TGI [36] greater than 100 µM. It also gave a TGI [37] greater than 100 µM, a TGI [38] greater than 100 µM and a TGI [39] greater than 100 µM. It also gave a TGI [40] greater than 100 µM, a TGI [41] greater than 100 µM and a TGI [42] greater than 100 µM. It also gave a TGI [43] greater than 100 µM, a TGI [44] greater than 100 µM and a TGI [45] greater than 100 µM. For the same molecule, the TGI [46] was greater than 100 µM, the TGI [47] was greater than 100 µM and the TGI [48] was greater than 100 µM. The TGI [49] was greater than 100 µM, the TGI [50] was greater than 100 µM and the TGI [51] was greater than 100 µM. For the same molecule, the TGI [52] was greater than 100 µM, the TGI [53] was greater than 100 µM and the TGI [54] was greater than 100 µM. The TGI [55] was greater than 100 µM, the TGI [56] was greater than 100 µM and the TGI [57] was greater than 100 µM.

With `COC(=O)c1c(OC(C)=O)ccc2c1c1c(OC(C)=O)c3ccccc3c(OC(C)=O)c1n2C` the TGI [1] was 94.8 µM, the TGI [2] was greater than 100 µM and the TGI [3] was 85 µM. The TGI [4] was 57.1 µM, the TGI [5] was 60 µM and the TGI [6] was 60.5 µM. It also gave a TGI [7] greater than 100 µM, a TGI [8] greater than 100 µM and a TGI [9] of 39.2 µM. The TGI [10] was 52.1 µM, the TGI [11] was 58.9 µM and the TGI [12] was greater than 100 µM. The TGI [13] was 48.1 µM, the TGI [14] was 65.1 µM and the TGI [58] was 38.7 µM. For the same molecule, the TGI [15] was 62.5 µM, the TGI [16] was greater than 100 µM and the TGI [17] was 35.5 µM. It also gave a TGI [18] of 43.2 µM, a TGI [19] of 51.1 µM and a TGI [21] of 99.4 µM. For the same molecule, the TGI [22] was 81.2 µM, the TGI [23] was greater than 100 µM and the TGI [24] was greater than 100 µM. The TGI [25] was greater than 100 µM, the TGI [26] was greater than 100 µM and the TGI [27] was 39.1 µM. It also gave a TGI [28] greater than 100 µM, a TGI [29] greater than 100 µM and a TGI [30] greater than 100 µM. It also gave a TGI [31] of 28.3 µM, a TGI [32] greater than 100 µM and a TGI [33] of 44.5 µM. It also gave a TGI [34] of 93.5 µM, a TGI [35] greater than 100 µM and a TGI [36] of 85.2 µM. For the same molecule, the TGI [37] was greater than 100 µM, the TGI [38] was 47.4 µM and the TGI [39] was greater than 100 µM. For the same molecule, the TGI [40] was 77.3 µM, the TGI [41] was 70.7 µM and the TGI [42] was 61.7 µM. It also gave a TGI [43] of 36 µM, a TGI [44] greater than 100 µM and a TGI [45] of 42.1 µM. For the same molecule, the TGI [46] was 52.4 µM, the TGI [47] was greater than 100 µM and the TGI [48] was greater than 100 µM. It also gave a TGI [49] of 26.4 µM, a TGI [50] of 34.5 µM and a TGI [52] of 50.5 µM. For the same molecule, the TGI [53] was 67.8 µM, the TGI [54] was 90.2 µM and the TGI [56] was 49.4 µM. The TGI [57] was greater than 100 µM.
